Values quoted from earlier work, collected in patent US20100136109A1, “SUSTAINED RELEASE” (priority 2007, published 2010).

Details: in vivo

Row | Structure (SMILES) | half-life
1 | N[C@@H](Cc1cc(I)c(Oc2cc(I)c(O)c(I)c2)c(I)c1)C(=O)O [Formulation T4, thyroxine] | 170 h
2 | N[C@@H](Cc1cc(I)c(Oc2ccc(O)c(I)c2)c(I)c1)C(=O)O [Formulation T3, triiodothyronine] | approx 12 hours
